PubChem BioAssay AID2060494 (Molecular Pharmacology Branch, DTP, NCI, 2025)

System: 435261-313-R-J1-PDC complex spheroid viability
Assay: Anticancer human tumor 435261-313-R-J1-PDC patient-derived colon adenocarcinoma cell line growth inhibition [GQUAD]
Conditions: for IC50: curve of first compound; for viability, T/C: stronger effect = lower value
Method in brief: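 Tumor cells were grown as complex spheroids with HUVEC endothelial cells and mesenchymal stem cells as stroma. G-quadruplex stabilizers were combined with targeted agents over half-log dilutions from near the clinical Cmax, or from 10 microM.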

[1] = second compound 0.0316 µM, first compound 0.0316 µM
[2] = second compound 0.0316 µM, first compound 0.1 µM
[3] = second compound 0.0316 µM, first compound 0.316 µM
[4] = second compound 0.0316 µM, first compound 1 µM
[5] = second compound 0.0316 µM, first compound 3.16 µM
[6] = second compound 0.0316 µM, first compound 10 µM
[7] = second compound 0.1 µM, first compound 0.0316 µM
[8] = second compound 0.1 µM, first compound 0.1 µM
[9] = second compound 0.1 µM, first compound 0.316 µM
[10] = second compound 0.1 µM, first compound 1 µM
[11] = second compound 0.1 µM, first compound 3.16 µM
[12] = second compound 0.1 µM, first compound 10 µM
[13] = second compound 0.316 µM, first compound 0.0316 µM
[14] = second compound 0.316 µM, first compound 0.1 µM
[15] = second compound 0.316 µM, first compound 0.316 µM
[16] = second compound 0.316 µM, first compound 1 µM
[17] = second compound 0.316 µM, first compound 3.16 µM
[18] = second compound 0.316 µM, first compound 10 µM
[19] = second compound 1 µM, first compound 0.0316 µM
[20] = second compound 1 µM, first compound 0.1 µM
[21] = second compound 1 µM, first compound 0.316 µM
[22] = second compound 1 µM, first compound 1 µM
[23] = second compound 1 µM, first compound 3.16 µM
[24] = second compound 1 µM, first compound 10 µM
[25] = second compound 3.16 µM, first compound 0.0316 µM
[26] = second compound 3.16 µM, first compound 0.1 µM
[27] = second compound 3.16 µM, first compound 0.316 µM
[28] = second compound 3.16 µM, first compound 1 µM
[29] = second compound 3.16 µM, first compound 3.16 µM
[30] = second compound 3.16 µM, first compound 10 µM
[31] = second compound 10 µM, first compound 0.0316 µM
[32] = second compound 10 µM, first compound 0.1 µM
[33] = second compound 10 µM, first compound 0.316 µM
[34] = second compound 10 µM, first compound 1 µM
[35] = second compound 10 µM, first compound 3.16 µM
[36] = second compound 10 µM, first compound 10 µM
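Further: spheroids exposed to the agents for seven days before readout.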
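Wherever viability, T/C is given: percent of vehicle control viability with DMSO wells as 100%.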

Question: With `CC(=O)O[C@H]1C(=O)[C@@]2(C)[C@H]([C@H](OC(=O)c3ccccc3)[C@]3(O)C[C@H](OC(=O)[C@H](O)[C@@H](NC(=O)c4ccccc4)c4ccccc4)C(C)=C1C3(C)C)[C@]1(OC(C)=O)CO[C@@H]1C[C@@H]2O` + CN(C)c1ccc(Nc2c3ccc(NC(=O)CCN4CCCC4)cc3nc3cc(NC(=O)CCN4CCCC4)ccc23)cc1 as the molecule, how does the IC50 (second compound 0.0316 µM) read?
Answer: > 10000 nM

Question: And the IC50 (second compound 0.1 µM)?
Answer: > 10000 nM

Question: And the IC50 (second compound 0.316 µM)?
Answer: > 10000 nM

Question: What about the IC50 (second compound 1 µM) of the same molecule?
Answer: > 10000 nM

Question: And the IC50 (second compound 3.16 µM)?
Answer: > 10000 nM

Question: What about the IC50 (second compound 10 µM) of the same molecule?
Answer: < 31.6 nM

Question: What about the viability, T/C [1] of the same molecule?
Answer: 94.3%

Question: And the viability, T/C [2]?
Answer: 78.6%

Question: What about the viability, T/C [3] of the same molecule?
Answer: 84.6%

Question: And the viability, T/C [4]?
Answer: 69.9%

Question: What about the viability, T/C [5] of the same molecule?
Answer: 69.1%

Question: What about the viability, T/C [6] of the same molecule?
Answer: 76.5%

Question: What about the viability, T/C [7] of the same molecule?
Answer: 71.9%

Question: What about the viability, T/C [8] of the same molecule?
Answer: 72.5%

Question: What about the viability, T/C [9] of the same molecule?
Answer: 77.4%

Question: And the viability, T/C [10]?
Answer: 62%

Question: And the viability, T/C [11]?
Answer: 75.3%

Question: And the viability, T/C [12]?
Answer: 70.5%

Question: And the viability, T/C [13]?
Answer: 72.5%

Question: And the viability, T/C [14]?
Answer: 82.5%

Question: What about the viability, T/C [15] of the same molecule?
Answer: 73.7%

Question: And the viability, T/C [16]?
Answer: 69.2%

Question: What about the viability, T/C [17] of the same molecule?
Answer: 68.4%

Question: And the viability, T/C [18]?
Answer: 61.5%

Question: What about the viability, T/C [19] of the same molecule?
Answer: 80.4%

Question: And the viability, T/C [20]?
Answer: 61.5%

Question: And the viability, T/C [21]?
Answer: 59.4%

Question: And the viability, T/C [22]?
Answer: 63.5%

Question: And the viability, T/C [23]?
Answer: 73.3%

Question: What about the viability, T/C [24] of the same molecule?
Answer: 63.6%

Question: What about the viability, T/C [25] of the same molecule?
Answer: 52.3%

Question: What about the viability, T/C [26] of the same molecule?
Answer: 52.6%

Question: And the viability, T/C [27]?
Answer: 48.6%

Question: What about the viability, T/C [28] of the same molecule?
Answer: 60.9%

Question: And the viability, T/C [29]?
Answer: 52.8%

Question: And the viability, T/C [30]?
Answer: 55.1%

Question: And the viability, T/C [31]?
Answer: 31.6%

Question: What about the viability, T/C [32] of the same molecule?
Answer: 19.9%

Question: And the viability, T/C [33]?
Answer: 23.6%

Question: And the viability, T/C [34]?
Answer: 21.2%

Question: And the viability, T/C [35]?
Answer: 27.5%

Question: What about the viability, T/C [36] of the same molecule?
Answer: 16.8%

Question: Which results are given for `COc1cccc2c1C(=O)c1c(O)c3c(c(O)c1C2=O)CC(O)(C(=O)CO)CC3OC1CC(N)C(O)C(C)O1` (centres undefined) + CN(C)c1ccc(Nc2c3ccc(NC(=O)CCN4CCCC4)cc3nc3cc(NC(=O)CCN4CCCC4)ccc23)cc1?
Answer: IC50 (second compound 0.0316 µM): 491 nM; IC50 (second compound 0.1 µM): 644 nM; IC50 (second compound 0.316 µM): 582 nM; IC50 (second compound 1 µM): 439 nM; IC50 (second compound 3.16 µM): 152 nM; IC50 (second compound 10 µM): < 31.6 nM; viability, T/C [1]: 83.2%; viability, T/C [2]: 71.2%; viability, T/C [3]: 65.4%; viability, T/C [4]: 26.9%; viability, T/C [5]: 2.29%; viability, T/C [6]: 5.25%; viability, T/C [7]: 73.4%; viability, T/C [8]: 87%; viability, T/C [9]: 78.7%; viability, T/C [10]: 32.1%; viability, T/C [11]: 3.52%; viability, T/C [12]: 4.61%; viability, T/C [13]: 76.3%; viability, T/C [14]: 79.1%; viability, T/C [15]: 70.5%; viability, T/C [16]: 31.5%; viability, T/C [17]: 2.47%; viability, T/C [18]: 2.91%; viability, T/C [19]: 83%; viability, T/C [20]: 69.8%; viability, T/C [21]: 58.7%; viability, T/C [22]: 31.9%; viability, T/C [23]: 1.79%; viability, T/C [24]: 3.08%; viability, T/C [25]: 46.8%; viability, T/C [26]: 62.5%; viability, T/C [27]: 42%; viability, T/C [28]: 16.4%; viability, T/C [29]: 1.33%; viability, T/C [30]: 3.49%; viability, T/C [31]: 37.7%; viability, T/C [32]: 28%; viability, T/C [33]: 17.7%; viability, T/C [34]: 12%; viability, T/C [35]: 2.28%; viability, T/C [36]: 3.53%
